In patent US20250333383A1, “N-OXIDE COMPOUNDS AND USE THEREOF” (SK BIOPHARMACEUTICALS CO., LTD., priority 2022, published 2025):

Key:
human Nav1.7 channels = biological target: T1, human Nav1.7 channels (Homo sapiens, UniProt Q15858); test: hNav1.7 channel assay, whole cell patch clamp, two-pulse protocol; format: cell-based; conditions: TP2 (inactivated phase inhibition), HEK293 cells stably expressing human Nav1.7, read-out: Inhibition activity: percent inhibition on the inactivated state of hNav1.7
T1 construct: host or cells: HEK293
Source text: Whole cell patch clamp technique was used to investigate the inhibitory effects of the compound of Examples on human Nav1.7 channels, stably expressed in HEK293 cells. Human Nav1.7 recombinant cell line (CYL3011-precisION) was purchased from Eurofins.
Two-pulse protocol was used every 10 seconds to assess the state-dependent inhibition by Examples. From the holding potential of −90 mV, pre-pulse (200 ms at −120 mV) was followed by test pulse1 ([…]), then test pulse2 (TP2: 20 ms at 0 mV) was evoked after inter-pulse (20 ms at −100 mV).
Peak current amplitudes were measured for test pulses TP1 (resting phase inhibition) and TP2 (inactivated phase inhibition). The following solutions were used for screening assay: External (mM): 145 NaCl, 1 MgCl2, 1.8 CaCl2, 10 Hepes, 5 Glucose, pH 7.4, 300 mOsm; Internal (mM): 120 CsF, 10 NaCl, 10 EGTA, 10 HEPES, pH 7.2, 290 mOsm.
The inhibition on the inactivated state of hNav1.7 was calculated as: % inhibition (inactivation state)=(1−(ITP2, TA/ITP2, Control)×100%, where ITP2 (the inward peak Na+ currents), Control and ITP2, TA were elicited by the TP2 in control (vehicle only) and in the presence of a test article (TA) indicating Examples, respectively.

[1] = tested on: Rat Spinal Nerve Ligation Model; test: Rat Spinal Nerve Ligation (SNL, Chung) model, mechanical allodynia by von Frey filaments; format: in vivo; conditions: 30 mg/kg, p.o., PWT two hours after the treatment
Procedure: Rat Spinal Nerve Ligation Model
Analgesic efficacy was examined through the Spinal Nerve Ligation (SNL) model, also known as the Chung model (Kim and Chung, 1992). SNL model is one of the most frequently used animal models for the assessment of neuropathic pain behavior.
Briefly, the lumbar 5 spinal nerve is ligated with silk suture distal to the dorsal root ganglion. After two weeks of recovery, mechanical allodynia in the affected paw of animals was evaluated using von Frey filaments. Using the Dixons Up-Down method (Chaplan et al, 1994), a pre-drug baseline was taken with allodynia defined as a paw withdrawal threshold (PWT)<4 g. Test compounds (at 30 mg/kg) or vehicle were then orally administered, and PWT was determined two hours after the treatment. Statistical mean values of PWT for vehicle control and drug treatment groups were calculated, and the percent of maximum possible effect (% MPE) value was determined according to the following formula; % MPE=[(post-drug PWT−pre-drug PWT)/(cutoff PWT−pre-drug PWT)]×100.

T1 sequence (Q15858 whole entry): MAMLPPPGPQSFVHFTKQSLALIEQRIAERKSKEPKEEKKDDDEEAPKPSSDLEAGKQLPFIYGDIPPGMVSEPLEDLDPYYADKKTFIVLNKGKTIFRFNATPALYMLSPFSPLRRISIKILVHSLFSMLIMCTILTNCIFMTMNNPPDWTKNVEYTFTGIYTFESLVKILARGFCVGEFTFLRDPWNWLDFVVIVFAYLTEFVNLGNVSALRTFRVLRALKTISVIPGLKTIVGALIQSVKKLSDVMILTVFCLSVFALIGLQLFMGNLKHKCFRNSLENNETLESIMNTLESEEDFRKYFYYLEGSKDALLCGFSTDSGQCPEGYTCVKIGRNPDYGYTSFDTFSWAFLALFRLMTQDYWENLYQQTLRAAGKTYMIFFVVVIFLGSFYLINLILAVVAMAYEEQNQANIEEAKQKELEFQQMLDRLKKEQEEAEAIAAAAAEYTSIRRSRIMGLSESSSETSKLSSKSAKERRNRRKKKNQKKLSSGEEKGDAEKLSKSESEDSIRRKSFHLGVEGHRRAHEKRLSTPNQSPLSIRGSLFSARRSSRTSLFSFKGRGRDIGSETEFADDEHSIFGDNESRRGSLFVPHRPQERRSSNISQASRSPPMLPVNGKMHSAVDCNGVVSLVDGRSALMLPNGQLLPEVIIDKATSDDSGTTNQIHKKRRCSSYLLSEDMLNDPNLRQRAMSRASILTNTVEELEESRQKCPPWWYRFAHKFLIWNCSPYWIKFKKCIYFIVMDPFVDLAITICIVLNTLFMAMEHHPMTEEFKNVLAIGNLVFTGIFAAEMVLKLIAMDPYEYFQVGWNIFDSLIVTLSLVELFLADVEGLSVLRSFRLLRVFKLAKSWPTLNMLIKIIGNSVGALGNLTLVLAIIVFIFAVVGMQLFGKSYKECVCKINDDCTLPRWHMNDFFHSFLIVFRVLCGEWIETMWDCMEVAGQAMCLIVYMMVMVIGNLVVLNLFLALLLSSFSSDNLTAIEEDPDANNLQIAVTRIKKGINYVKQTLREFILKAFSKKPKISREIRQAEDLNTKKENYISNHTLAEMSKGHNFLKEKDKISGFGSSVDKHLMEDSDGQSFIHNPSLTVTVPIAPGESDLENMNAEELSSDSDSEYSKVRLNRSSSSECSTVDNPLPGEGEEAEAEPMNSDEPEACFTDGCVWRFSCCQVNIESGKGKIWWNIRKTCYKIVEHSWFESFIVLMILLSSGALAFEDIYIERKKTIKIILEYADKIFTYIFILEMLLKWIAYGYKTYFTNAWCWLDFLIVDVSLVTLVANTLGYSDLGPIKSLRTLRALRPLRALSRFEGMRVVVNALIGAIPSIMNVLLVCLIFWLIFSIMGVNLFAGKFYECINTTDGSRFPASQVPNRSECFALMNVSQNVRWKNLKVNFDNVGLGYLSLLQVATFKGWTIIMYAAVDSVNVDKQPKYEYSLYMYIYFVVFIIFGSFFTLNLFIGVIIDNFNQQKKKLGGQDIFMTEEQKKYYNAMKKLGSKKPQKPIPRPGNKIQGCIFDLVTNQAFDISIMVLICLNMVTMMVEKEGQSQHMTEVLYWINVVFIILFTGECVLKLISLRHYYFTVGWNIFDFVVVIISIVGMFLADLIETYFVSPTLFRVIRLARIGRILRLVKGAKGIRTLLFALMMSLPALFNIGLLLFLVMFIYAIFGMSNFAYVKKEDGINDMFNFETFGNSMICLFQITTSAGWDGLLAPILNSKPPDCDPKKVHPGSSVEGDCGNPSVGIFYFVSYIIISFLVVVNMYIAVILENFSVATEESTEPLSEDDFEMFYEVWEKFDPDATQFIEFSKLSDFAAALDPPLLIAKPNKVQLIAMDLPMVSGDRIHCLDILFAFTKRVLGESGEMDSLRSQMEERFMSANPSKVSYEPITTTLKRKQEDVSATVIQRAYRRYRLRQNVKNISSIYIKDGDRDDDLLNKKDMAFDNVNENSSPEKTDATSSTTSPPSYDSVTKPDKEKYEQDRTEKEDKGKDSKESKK

Row | Structure (SMILES) | inhibition at 10 µM (human Nav1.7 channels) [%] | in vivo efficacy: % MPE [1]
1 | O=C(NCc1cccc[n+]1[O-])c1cccc(-c2ccc(Cl)cc2)c1 [Example 2, 3-(4-chlorophenyl)-N-[(1-oxidopyridin-1-ium-2-yl)methyl]benzamide] | 70 to 100 | +++ (+++: 70-100%)
2 | Cc1ccc(-c2cccc(C(=O)NCc3cccc[n+]3[O-])c2)cc1 [Example 14, N-[(1-oxidopyridin-1-ium-2-yl)methyl]-3-(p-tolyl)benzamide] | 40 to 70 | ++ (++: 40-70%,)
3 | O=C(NCc1cccc[n+]1[O-])c1cccc(-c2ccc(F)c(F)c2)c1 [Example 19, 3-(3,4-difluorophenyl)-N-[(1-oxidopyridin-1-ium-2-yl)methyl]benzamide] | 40 to 70 | ++ (++: 40-70%,)
4 | COc1ccccc1-c1cccc(C(=O)NCc2cccc[n+]2[O-])c1 [Example 40, 3-(2-methoxyphenyl)-N-[(1-oxidopyridin-1-ium-2-yl)methyl]benzamide] | 70 to 100 | 
5 | CC(C)(O)c1ccc(-c2cccc(C(=O)NCc3cccc[n+]3[O-])c2)cc1 [Example 44, 3-[4-(1-hydroxy-1-methyl-ethyl)phenyl]-N-[(1-oxidopyridin-1-ium-2-yl)methyl]benzamide] | 70 to 100 | 
6 | O=C(NCc1cccc[n+]1[O-])c1cc(-c2ccc(Cl)cc2)ccc1F [Example 51, 5-(4-chlorophenyl)-2-fluoro-N-[(1-oxidopyridin-1-ium-2-yl)methyl]benzamide] | 70 to 100 | +++ (+++: 70-100%)
7 | O=C(NCc1cccc[n+]1[O-])c1cc(-c2cccc(Cl)c2)ccc1F [Example 52, 5-(3-chlorophenyl)-2-fluoro-N-[(1-oxidopyridin-1-ium-2-yl)methyl]benzamide] | 70 to 100 | 
8 | COc1cc(Cl)ccc1-c1ccc(F)c(C(=O)NCc2cccc[n+]2[O-])c1 [Example 53, 5-(4-chloro-2-methoxy-phenyl)-2-fluoro-N-[(1-oxidopyridin-1-ium-2-yl)methyl]benzamide] | 70 to 100 | 
9 | O=C(NCc1cccc[n+]1[O-])c1cc(-c2ccc(F)c(F)c2)ccc1F [Example 54, 5-(3,4-difluorophenyl)-2-fluoro-N-[(1-oxidopyridin-1-ium-2-yl)methyl]benzamide] | 70 to 100 | 
10 | O=C(NCc1cccc[n+]1[O-])c1cc(-c2ccc(Cl)cc2C(F)(F)F)ccc1F [Example 55, 5-[4-chloro-2-(trifluoromethyl)phenyl]-2-fluoro-N-[(1-oxidopyridin-1-ium-2-yl)methyl]benzamide] | 40 to 70 | 
11 | COc1cc(OC(F)(F)F)ccc1-c1ccc(F)c(C(=O)NCc2cccc[n+]2[O-])c1 [Example 56, 2-fluoro-5-[2-methoxy-4-(trifluoromethoxy)phenyl]-N-[(1-oxidopyridin-1-ium-2-yl)methyl]benzamide] | 70 to 100 | 
12 | O=C(NCc1cccc[n+]1[O-])c1cc(-c2ccc(C(F)(F)F)cc2)ccc1F [Example 57, 2-fluoro-N-[(1-oxidopyridin-1-ium-2-yl)methyl]-5-[4-(trifluoromethyl)phenyl]benzamide] | 70 to 100 | 
13 | O=C(NCc1cccc[n+]1[O-])c1cc(-c2ccc(OC(F)(F)F)cc2)ccc1F [Example 58, 2-fluoro-N-[(1-oxidopyridin-1-ium-2-yl)methyl]-5-[4-(trifluoromethoxy)phenyl]benzamide] | 70 to 100 | 
14 | COc1cc(-c2ccc(F)c(C(=O)NCc3cccc[n+]3[O-])c2)ccc1C(F)(F)F [Example 59, 2-fluoro-5-[3-methoxy-4-(trifluoromethyl)phenyl]-N-[(1-oxidopyridin-1-ium-2-yl)methyl]benzamide] | 70 to 100 | 
15 | O=C(NCc1cccc[n+]1[O-])c1cc(-c2ccc(C(F)(F)F)c(F)c2)ccc1F [Example 60, 2-fluoro-5-[3-fluoro-4-(trifluoromethyl)phenyl]-N-[(1-oxidopyridin-1-ium-2-yl)methyl]benzamide] | 70 to 100 | 
16 | O=C(NCc1ccc(F)c[n+]1[O-])c1cccc(-c2ccc(Cl)cc2)c1 [Example 61, 3-(4-chlorophenyl)-N-[(5-fluoro-1-oxido-pyridin-1-ium-2-yl)methyl]benzamide] | 70 to 100 | 
17 | O=C(NCc1cccc[n+]1[O-])c1cc(-c2ccc(Cl)cc2)ccc1Cl [Example 62, 2-chloro-5-(4-chlorophenyl)-N-[(1-oxidopyridin-1-ium-2-yl)methyl]benzamide] | 70 to 100 | 

Continued, in another order:

Row | inhibition at 10 µM (human Nav1.7 channels) [%] | Structure (SMILES) | in vivo efficacy: % MPE [1]
18 | 70 to 100 | O=C(NCc1cccc[n+]1[O-])c1cccc(-c2ccc(OC(F)(F)F)cc2)c1 [Example 3, N-[(1-oxidopyridin-1-ium-2-yl)methyl]-3-[4-(trifluoromethoxy)phenyl]benzamide] | ++ (++: 40-70%,)
19 | 40 to 70 | Cc1cc(-c2cccc(C(=O)NCc3cccc[n+]3[O-])c2)ccc1F [Example 22, 3-(4-fluoro-3-methyl-phenyl)-N-[(1-oxidopyridin-1-ium-2-yl)methyl]benzamide] | + (+: 10-40%,)
20 | 70 to 100 | O=C(NCc1cccc[n+]1[O-])c1cccc(-c2ccc(F)c(C(F)(F)F)c2)c1 [Example 39, 3-[4-fluoro-3-(trifluoromethyl)phenyl]-N-[(1-oxidopyridin-1-ium-2-yl)methyl]benzamide] | 
21 | 10 to 40 | O=C(NCc1cccc[n+]1[O-])c1cccc(-c2cc(F)cc(C(F)(F)F)c2)c1 [Example 41, 3-[3-fluoro-5-(trifluoromethyl)phenyl]-N-[(1-oxidopyridin-1-ium-2-yl)methyl]benzamide] | 
22 | 40 to 70 | O=C(NCc1cccc[n+]1[O-])c1cccc(-c2ccc(C(F)(F)F)c(F)c2)c1 [Example 42, 3-[3-fluoro-4-(trifluoromethyl)phenyl]-N-[(1-oxidopyridin-1-ium-2-yl)methyl]benzamide] | 
23 | 70 to 100 | Cc1cc(-c2cccc(C(=O)NCc3cccc[n+]3[O-])c2)ccc1C(F)(F)F [Example 43, 3-[3-methyl-4-(trifluoromethyl)phenyl]-N-[(1-oxidopyridin-1-ium-2-yl)methyl]benzamide] | 
24 | 10 to 40 | COc1cc(-c2cccc(C(=O)NCc3cccc[n+]3[O-])c2)cc(C(F)(F)F)c1 [Example 45, 3-[3-methoxy-5-(trifluoromethyl)phenyl]-N-[(1-oxidopyridin-1-ium-2-yl)methyl]benzamide] | 
25 | 10 to 40 | COc1cc(F)c(F)cc1-c1cccc(C(=O)NCc2cccc[n+]2[O-])c1 [Example 47, 3-(4,5-difluoro-2-methoxy-phenyl)-N-[(1-oxidopyridin-1-ium-2-yl)methyl]benzamide] | 
26 | 40 to 70 | COc1cc(-c2cccc(C(=O)NCc3cccc[n+]3[O-])c2)ccc1Cl [Example 48, 3-(4-chloro-3-methoxy-phenyl)-N-[(1-oxidopyridin-1-ium-2-yl)methyl]benzamide] | 
27 | 70 to 100 | COc1cc(-c2cccc(C(=O)NCc3cccc[n+]3[O-])c2)ccc1C(F)(F)F [Example 49, 3-[3-methoxy-4-(trifluoromethyl)phenyl]-N-[(1-oxidopyridin-1-ium-2-yl)methyl]benzamide] | 
28 | 40 to 70 | COc1ccc(-c2cccc(C(=O)NCc3cccc[n+]3[O-])c2)c(C(F)(F)F)c1 [Example 50, 3-[4-methoxy-2-(trifluoromethyl)phenyl]-N-[(1-oxidopyridin-1-ium-2-yl)methyl]benzamide] | 
